Test results reported in patent US20230285516A1 (priority 2020, published 2023).
“Also recorded” adds a separate entry of the source. Read-outs that look alike come from different tables or passages of the source.

Assays:
Th2 (CD4+/IL-4+) cells = assay: FACS of spleen Th2 cells in CIA models; format: in vivo, mice; conditions: early arthritis model, first sacrifice only
Description: (§1) Early Arthritis Model. Fifty mice with the same characteristics were immunized at the base of the tail with 100 μg of chicken type II collagen emulsified in complete Freund's adjuvant. The boost was applied on day 21 at the base of the tail with 100 μg of type II collagen emulsified with Freund's incomplete adjuvant. On the same boosting day, the treatments (a-d) were applied every week for six weeks. Three animals were euthanized in the sixth week and three in the thirteenth week. The spleen, lymph nodes, joint tissue, liver, lungs, kidneys and heart were obtained in order to assess the inflammatory infiltrate, the predominant cell populations and the expression of pro- and anti-inflammatory cytokines.
(§2) Established Arthritis Model. Arthritis was induced as in the previous model in 50 mice and the treatments were applied intramuscularly, after 2 weeks of the boost, every week for 6 weeks. Three animals were euthanized in the eighth week and three in the fifteenth week. The spleen, lymph nodes, joint tissue, liver, lungs, kidneys and heart were obtained in order to assess the inflammatory infiltrate, the predominant cell populations and the expression of pro- and anti-inflammatory cytokines. […]
(§3) FIG. 10. […] The intracellular production of IL-17A, IL-4, IFN-γ and Foxp3 by CD4+ T cells was detected by flow cytometry. The results are representative of 6 mice analyzed in each group. […]

SARS-CoV2 (Covid-19) [1] = tested on: SARS-CoV2 (Covid-19)
dormant cells = conditions: Jou I-M 2005; Furuzawa-Carballeda 2003; cited from earlier work
IL-1β = IL-1β in co-culture supernatants (ELISA); format: cell-based, human; conditions: RA or OA co-cultures, day 7 of culture
Description: (§4) Cartilage and synovium co-cultures were performed from 9 patients with RA and 8 patients with OA who underwent hip or knee replacement (Table 1). Joint tissue was cultured with (a) RPMI (control), (b) 1% type I polymerized collagen, for 7 days. The supernatants and tissues of days 1 and 7 were […] collected. In the culture supernatants the concentration of IL-1β, IL-8, IL-10, IL-12, TNF-α and IFN-γ was quantified by ELISA and the results were normalized with total protein concentration. The expression of IL-1β and TNF-α was evaluated using histochemistry.
FIG. 3. Effect of type I polymerized collagen on IL-1β expression in supernatants of cartilage and synovium co-cultures from patients with rheumatoid arthritis (RA) or osteoarthritis (OA). The data represent the mean±SD of 9 co-cultures of cartilage and synovial tissue from patients with RA and of 8 co-cultures of patients with OA. Each culture was performed in triplicate for each condition. The results were normalized with the total protein concentration of the supernatant, determined by the Folin-Lowry micromethod. AR: left panel. OA: panel on the right. Basal: tissue in basal conditions.

Th17 (CD4+/IL-17+) cells = assay: FACS of spleen Th17 cells in CIA models; format: in vivo, mice; conditions: CIA model, fold
Description: as §1, §2, §3

SARS-CoV2 (Covid-19) [2] = tested on: SARS-CoV2 (Covid-19); remark: listed apart in the source
TNF-α = TNF-α tissue expression in cartilage and synovium co-cultures (histochemistry); format: cell-based, human; conditions: RA or OA co-cultures, 1% type I polymerized collagen, 7 days
Description: as §4
FIG. 2. Effect of type I polymerized collagen on TNF-α expression. (A) Cells immunoreactive to TNF-α in the synovial tissue of the co-cultures. (B) Immunoreactive TNF-α+ cells in cartilage from co-cultures. Rheumatoid arthritis (RA): left panel. Osteoarthritis (OA): right panel. Basal: tissue in basal conditions. […] Each culture was performed in triplicate for each condition, of which at least two sections of each of the tissues were analyzed. The results are expressed as the mean±standard error (SEM) of the percentage of immunoreactive cells in 9 co-cultures of patients with RA and 8 with OA. *p≤0.002.

[3] = Adverse events in the mouse study; format: in vivo, mice; conditions: after injection, throughout the study
Description: There was no evidence of adverse events after injection of placebo or the different treatments throughout the study. The only adverse event observed was pain lasting less than 15 minutes at the injection site.

IL-8 = IL-8 in co-culture supernatants (ELISA); format: cell-based, human; conditions: tissue co-cultures from RA patients
Description: as §4
FIG. 5. Effect of type I polymerized collagen on IL-8 expression in supernatants of cartilage and synovial tissue co-cultures from patients with rheumatoid arthritis (RA) or osteoarthritis (OA). The data represent the mean±SD of 9 co-cultures of cartilage and synovium from patients with RA and of 8 co-cultures of patients with OA. Each culture was performed in triplicate for each condition. The results were normalized with the total protein concentration of the supernatant, determined by the Folin-Löwry micromethod. AR: left panel. OA: panel on the right. Basal: tissue in basal conditions.

mice with CIA = assay: Histopathological analysis of hind legs, collagen-induced arthritis (CIA) models; format: in vivo; conditions: H&E and PAS, intramuscular weekly for 6 weeks
Description: as §1
Established Arthritis Model. Arthritis was induced as in the previous model in 50 mice and the treatments were applied intramuscularly, after 2 weeks of the boost, every week for 6 weeks. Three animals were euthanized in the eighth week and three in the fifteenth week. The spleen, lymph nodes, joint tissue, liver, lungs, kidneys and heart were obtained in order to assess the inflammatory infiltrate, the predominant cell populations and the expression of pro- and anti-inflammatory cytokines.
Histological evaluation. The inflammatory infiltrate and tissue architecture were evaluated by H&E and Masson's trichrome staining and the content of proteoglycans, with the PAS technique. […]

[4] = severe to semi-critical disease
[5] = end of treatment and 7-day follow-up

collagen-polyvinylpyrrolidone [type I polymerized collagen]
number of circulating Th2 cells (Th2 (CD4+/IL-4+) cells): modified
fever, alterations in heart rate, respiratory rate, headache and arthralgias (SARS-CoV2 (Covid-19) [1]; after 7 days): disappearance
adverse effects (SARS-CoV2 (Covid-19) [1]; [4]): No adverse effects were detected, except for pain at the application site
persistence of pain at the application site (SARS-CoV2 (Covid-19) [1]; [4]): 5 to 15 min
response of dormant cells (dormant cells): does not induce any response
expression of IL-1β vs. the controls in the supernatants (IL-1β): decreased
negative regulation of the subpopulation of Th17 cells (Th17 (CD4+/IL-17+) cells): 1.5-2.0 ×
fever, changes in heart rate and odynophagia (SARS-CoV2 (Covid-19) [2]; after 7 days): disappearance
patients in whom cough, myalgia, and loss of taste persisted (SARS-CoV2 (Covid-19) [2]; after 7 days): 40%
patients persisting with alterations in respiratory rate, headache, anosmia, and arthralgia (SARS-CoV2 (Covid-19) [2]; after 7 days): 20%
patients persisting with dyspnea (SARS-CoV2 (Covid-19) [2]; after 7 days): 60%
patients with mild alterations in heart rate, cough and loss of the sense of taste (SARS-CoV2 (Covid-19) [2]; day 14, 7 days post-treatment): 20%
the other symptoms (SARS-CoV2 (Covid-19) [2]; day 14, 7 days post-treatment): disappeared
dyspnea and headache (SARS-CoV2 (Covid-19) [2]; [5]): disappeared in all patients
oxygen requirement to maintain saturation >90% (SARS-CoV2 (Covid-19) [2]; [5]): none required oxygen
acute respiratory failure syndrome or hospitalization (SARS-CoV2 (Covid-19) [2]; human, in vivo): None
complications related to SARS-CoV2 infection or due to the use of collagen-PVP (SARS-CoV2 (Covid-19) [2]; human, in vivo): No complications
death (SARS-CoV2 (Covid-19) [2]; human, in vivo): No patient died
adverse effects (SARS-CoV2 (Covid-19) [2]; mild to moderate disease): No adverse effects were detected, except for pain at the application site
persistence of pain at the application site (SARS-CoV2 (Covid-19) [2]; mild to moderate disease): 5 to 15 min
clinical improvement (SARS-CoV2 (Covid-19) [2]; patients with Covid-19, intramuscular, all cases): In all cases there was a clinical improvement
tissue expression of TNF-α vs. controls in synovial tissue (TNF-α): decreased
adverse events [3]: no adverse effects
concentration of IL-8 in the supernatants of the co-cultures (IL-8): greatest decrease
histopathology of joint tissue (inflammation, tissue architecture) (mice with CIA): decreased the degree of inflammation and preserved the joint structure; also recorded: maintained a tissue architecture similar to normal
